The subject of one assay is HCV replicon genotype 1a. The assay is described as follows: microbe, parasite or virus in culture. In kind it is cell-based, hepatitis C virus (HCV). Particulars: Hepatitis C virus, 96 h, read-out: 1a IC50 (nM).
The next assay has as its system HCV replicon genotype 1b. The assay is described as follows: microbe, parasite or virus in culture. In kind it is cell-based, hepatitis C virus (HCV). Particulars: Hepatitis C virus, 96 h, read-out: 1b IC50 (nM).

Molecules are shown by their SMILES.

As a reminder, the IC50 is the concentration that inhibits the measured activity by half. Take `CNC(=O)c1c(-c2ccc(F)cc2)oc2cc(N(C)S(C)(=O)=O)c(-c3cnc4ncn(Cc5ccc(F)cc5)c(=O)c4c3)cc12` [Compound 24]: the concentration for half-maximal inhibition (IC50) worked out at 2.59 nM with HCV replicon genotype 1a and 2.57 nM in the assay with HCV replicon genotype 1b.
The matching figures for `CNC(=O)c1c(-c2ccc(F)cc2)oc2cc(N(C)S(C)(=O)=O)c(-c3cc4c(=O)n(Cc5ccc(F)cc5)nnc4cc3C)cc12` [Compound 72, 5-[3-(4-fluorobenzyl)-7-methyl-4-oxo-3,4-dihydro-1,2,3-benzotriazin-6-yl]-2-(4-fluorophenyl)-N-methyl-6-[methyl(methylsulfonyl)amino]-1-benzofuran-3-carboxamide]: 8.62 nM and 6.47 nM.
For `CNC(=O)c1c(-c2ccc(F)cc2)oc2cc(N(C)S(C)(=O)=O)c(-c3ccc4c(n3)C(=O)N(c3ccc(F)cc3)CO4)cc12` [Compound 2], the IC50 is 24.8 nM in the assay with HCV replicon genotype 1a and 3.34 nM with HCV replicon genotype 1b.
On to `CNC(=O)c1c(-c2ccc(F)cc2)oc2cc(N(C)S(C)(=O)=O)c(-c3ccc4c(n3)C(=O)N(Cc3cccc(F)c3)CO4)cc12` [Compound 7], for which the IC50 in the assay with HCV replicon genotype 1a amounted to 1.48 nM; with HCV replicon genotype 1b it was 1.06 nM.
On to `CNC(=O)c1c(-c2ccc(F)cc2)oc2cc(N(C)S(C)(=O)=O)c(-c3ccc4nnn([C@H](COC)c5ccc(F)cc5)c(=O)c4c3)cc12` [Compound 39, (S)-2-(4-fluorophenyl)-5-(3-(1-(4-fluorophenyl)-2-methoxyethyl)-4-oxo-3,4-dihydrobenzo[d][1,2,3]triazin-6-yl)-N-methyl-6-(N-methylmethylsulfonamido)benzofuran-3-carboxamide], for which the figures for the IC50 in the assay with HCV replicon genotype 1a and in the assay on HCV replicon genotype 1b were 4.04 nM and 9.27 nM, respectively.
With `CNC(=O)c1c(-c2ccc(F)cc2)oc2cc(N(C)S(C)(=O)=O)c(-c3ccc4nc(C)n([C@H](CCO)c5ccc(F)cc5)c(=O)c4n3)cc12` [Compound 66, (R)-2-(4-fluorophenyl)-5-(3-(1-(4-fluorophenyl)-3-hydroxypropyl)-2-methyl-4-oxo-3,4-dihydropyrido[3,2-d]pyrimidin-6-yl)-N-methyl-6-(N-methylmethylsulfonamido)benzofuran-3-carboxamide], the IC50 in the assay on HCV replicon genotype 1a came to 7.29 nM; in the assay on HCV replicon genotype 1b, 4.06 nM.
For the compound `CNC(=O)c1c(-c2ccc(F)cc2)oc2cc(N(C)S(C)(=O)=O)c(-c3ccc4ncn(Cc5ccc(F)cn5)c(=O)c4c3)cc12` [Compound 52, 2-(4-fluorophenyl)-5-{3-[(5-fluoropyridin-2-yl)methyl]-4-oxo-3,4-dihydroquinazolin-6-yl}-N-methyl-6-[methyl(methylsulfonyl)amino]-1-benzofuran-3-carboxamide], the IC50 amounted to 6.37 nM with HCV replicon genotype 1a and 2.11 nM in the assay with HCV replicon genotype 1b.
The matching figures for `CNC(=O)c1c(-c2ccc(F)cc2)oc2cc(N(C)S(C)(=O)=O)c(-c3ccc4nc(C)n([C@@H](COC)c5ccc(F)cc5)c(=O)c4n3)cc12` [Compound 65, (R)-2-(4-fluorophenyl)-5-(3-(1-(4-fluorophenyl)-2-methoxyethyl)-2-methyl-4-oxo-3,4-dihydropyrido[3,2-d]pyrimidin-6-yl)-N-methyl-6-(N-methylmethylsulfonamido)benzofuran-3-carboxamide]: 9.28 nM and 2.95 nM.
For `CNC(=O)c1c(-c2ccc(F)cc2)oc2cc(N(C)S(C)(=O)=O)c(-c3ccc4ncn(Cc5ccc(F)cc5OC)c(=O)c4c3)cc12` [Compound 51, 5-[3-(4-fluoro-2-methoxybenzyl)-4-oxo-3,4-dihydroquinazolin-6-yl]-2-(4-fluorophenyl)-N-methyl-6-[methyl(methylsulfonyl)amino]-1-benzofuran-3-carboxamide], the IC50 came out at 8.98 nM with HCV replicon genotype 1a and 2.35 nM with HCV replicon genotype 1b.
Turning to `CNC(=O)c1c(-c2ccc(F)cc2)oc2cc(N(C)S(C)(=O)=O)c(-c3cnc4ncn([C@H](C)c5ccc(F)cc5)c(=O)c4c3)cc12` [Compound 25], the IC50 in the assay on HCV replicon genotype 1a was found to be 16.3 nM; with HCV replicon genotype 1b, 11.9 nM.
In the case of `CNC(=O)c1c(-c2ccc(F)cc2)oc2cc(N(C)S(C)(=O)=O)c(-c3ccc4nnn(Cc5ccccc5)c(=O)c4c3)cc12` [Compound 42, 5-(3-benzyl-4-oxo-3,4-dihydro-1,2,3-benzotriazin-6-yl)-2-(4-fluorophenyl)-N-methyl-6-[methyl(methylsulfonyl)amino]-1-benzofuran-3-carboxamide], the IC50 with HCV replicon genotype 1a turned out to be 9.48 nM; in the assay on HCV replicon genotype 1b, 9.55 nM.
The matching figures for `CNC(=O)c1c(-c2ccc(F)cc2)oc2cc(N(C)S(C)(=O)=O)c(-c3cnc4ncn(-c5ccc(F)cc5)c(=O)c4c3)cc12` [Compound 22]: 16.2 nM and 4.12 nM.
Take `CNC(=O)c1c(-c2ccc(F)cc2)oc2cc(N(C)S(C)(=O)=O)c(-c3ccc4c(n3)C(=O)N(CCc3ccccc3)CO4)cc12` [Compound 4]: the results for the half-maximal inhibitory concentration (IC50) with HCV replicon genotype 1a and with HCV replicon genotype 1b were 39.9 nM and 15.2 nM, respectively.
For the compound `CNC(=O)c1c(-c2ccc(F)cc2)oc2cc(N(C)S(C)(=O)=O)c(-c3ccc4nc(C)n(Cc5ccc(F)cc5OC)c(=O)c4n3)cc12` [Compound 63, 5-(3-(4-fluoro-2-methoxybenzyl)-2-methyl-4-oxo-3,4-dihydropyrido[3,2-d]pyrimidin-6-yl)-2-(4-fluorophenyl)-N-methyl-6-(N-methylmethylsulfonamido)benzofuran-3-carboxamide], the figures for the IC50 in the assay with HCV replicon genotype 1a and in the assay on HCV replicon genotype 1b were 23.7 nM and 9 nM, respectively.
Regarding `CNC(=O)c1c(-c2ccc(F)cc2)oc2cc(N(C)S(C)(=O)=O)c(-c3ccc4nnn([C@@H](C)c5ccc(F)cc5)c(=O)c4c3)cc12` [Compound 45, 2-(4-fluorophenyl)-5-{3-[(1S)-1-(4-fluorophenyl)ethyl]-4-oxo-3,4-dihydro-1,2,3-benzotriazin-6-yl}-N-methyl-6-[methyl(methylsulfonyl)amino]-1-benzofuran-3-carboxamide], the IC50 is 35 nM in the assay with HCV replicon genotype 1a and 17.5 nM in the assay with HCV replicon genotype 1b.
For `CNC(=O)c1c(-c2ccc(F)cc2)oc2cc(N(C)S(C)(=O)=O)c(-c3ccc4nnn(C(CO)c5ccccc5)c(=O)c4c3)cc12` (stereo not drawn) [Compound 43, 2-(4-fluorophenyl)-5-[3-(2-hydroxy-1-phenylethyl)-4-oxo-3,4-dihydro-1,2,3-benzotriazin-6-yl]-N-methyl-6-[methyl(methylsulfonyl)amino]-1-benzofuran-3-carboxamide], the IC50 in the assay on HCV replicon genotype 1a worked out at 15.1 nM; with HCV replicon genotype 1b, 9.66 nM.
In the case of `CNC(=O)c1c(-c2ccc(F)cc2)oc2cc(N(C)S(C)(=O)=O)c(-c3ccc4nnn(Cc5ccc(F)cn5)c(=O)c4c3)cc12` [Compound 48, 2-(4-fluorophenyl)-5-{3-[(5-fluoropyridin-2-yl)methyl]-4-oxo-3,4-dihydro-1,2,3-benzotriazin-6-yl}-N-methyl-6-[methyl(methylsulfonyl)amino]-1-benzofuran-3-carboxamide], the IC50 with HCV replicon genotype 1a amounted to 6.93 nM; in the assay with HCV replicon genotype 1b, 5.97 nM.
The matching figures for `CNC(=O)c1c(-c2ccc(F)cc2)oc2cc(N(C)S(C)(=O)=O)c(-c3ccc4c(n3)C(=O)N(Cc3ccc(F)cc3)CC4)cc12` [Compound 36, 5-(7-(4-fluorobenzyl)-8-oxo-5,6,7,8-tetrahydro-1,7-naphthyridin-2-yl)-2-(4-fluorophenyl)-N-methyl-6-(N-methylmethylsulfonamido)benzofuran-3-carboxamide]: 1.08 nM and 0.527 nM.

The values above are taken from patent US9364482B2, “Substituted benzofuran compounds and methods of use thereof for the treatment of viral diseases” (priority 2013, dated 2016).
